Assay results reported in patent US20240115670A1, “FIBROBLAST ACTIVATION PROTEIN MODULATION TO ALTER IMMUNE CELL MIGRATION AND TUMOR INFILTRATION” (Georgetown University, priority 2021, published 2024).
“Also recorded” adds a separate entry of the source.

What was measured:
FAP = target: T1, FAP (Homo sapiens, UniProt Q12884); experiment: Fluorescent peptide dipeptidyl peptidase activity assay; format: biochemical; conditions: fluorescent peptide substrate
T1 construct: purchased R&D systems 3715-SE-010
Procedure: (§1) 100 mM stock of dipeptidyl peptidase substrate (Acetyl-Aka-Gly-Pro-AFC) (Anaspec, cat #AS-24126) was made by resuspending lyophilized substrate in DMSO. On the day of the assay, substrate stock was then diluted 1:1000 in activity assay buffer (50 mM Tris, 1 M NaCl, 1 mg/mL BSA, pH 7.5). A standard curve was generated using rFAP (R&D systems, cat #3715-SE-010) or rDPP4 (R&D systems, cat #9168-SE) and 50 uL of recombinant protein plus 50 uL of substrate was added to each well of a 96 Well Flat Clear Bottom White Polystyrene TC-Treated Microplates (Corning, cat #3903). The plate was incubated for 30 minutes at 37° C. then read on a PerkinElmer EnVision Multimode Plate Reader with 390-400 nm excitation and […] emission wavelengths. To test tumor lysates, 50-100 mg of snap frozen tumors were homogenized in 100-300 uL activity assay buffer using a Kimble Biomasher II closed system tissue grinder (DWK Life Sciences, cat #749625-0020). Protein concentration was determined using Bio-rad protein concentration DC Protein Assay Kit II (Bio-rad, cat #5000112). All samples were diluted to equal protein concentrations using activity assay buffer then added at 50 uL plus 50 uL substrate per well. Final concentration of FAP per well was calculated using the standard curve. Data were compiled and assessed for significance using GraphPad Prism 9 for an unpaired, two-tailed t-test.

DPPIV = target: T2, DPPIV (Homo sapiens, UniProt P27487); experiment: as above; format: biochemical; conditions: fluorescent peptide substrate
T2 construct: purchased R&D systems 9168-SE
Procedure: as §1

NK92-GFP cells [1] = experiment: NK92-GFP infiltration into PDAC tumor spheroids; format: cell-based, human; conditions: 10 uM Cpd60, 4 hours
Procedure: PSC or PANC-1 spheroids were generated by plating 10,000 cells in a 0.1% agarose coated U-bottomed 96-well plate. PSC+PANC-1 spheroids were generated by plating 5,000 cells of each cell type. Aggregation was promoted by centrifuging the cells at 1000 rpm for 5 minutes. Cells incubated overnight at 37° C. The next day, 1,000 NK92-GFP cells were added per well and incubated for 4 hours at 37° C. Spheroids were imaged using the Olympus IX-71 Inverted Epifluorescent Microscope at 5×. Images were analyzed in FIJI. All images underwent identical contrast enhancement and background reduction. Then a line was drawn from spheroid edge to spheroid center and GFP intensity along that line was measured. Graphs of resulting data and statistical analysis were generated in Graphpad Prism 9.

primary human NK cells = experiment: 2D live imaging of primary NK cell migration on EL08.1D2 stromal cells; format: cell-based; conditions: 10 uM Cpd60 vs vehicle; three donors
Procedure: 2D migration studies were done as previously reported. In brief, EL08.1D2 stromal cells were grown to a confluent monolayer on Lab-Tek chamber slides pre-coated with 0.1% gelatin (Stemcell Technologies). […] Cells were imaged in 96-well ImageLock plates (Essen Bioscience) on the IncuCyte ZOOM Live-Cell Analysis System (Essen Bioscience) at 37° C. every 2 min in the phase-contrast mode (10× objective). Tracking of live cells was done using the manual tracking feature in Volocity or FIJI. Tracks were plotted using the Chemotaxis plugin of FUI. Cells that were in the field of imaging for fewer than two frames were discarded, as were cells which were non-adherent or floating. EL08.1D2 cells were used as de facto fiducial markers to ensure that neither they or the microscope stage was drifting and causing apparent NK cell movement.
Length and displacement measurements were derived directly from tracked cells and graphed using GraphPad software. Velocity data was obtained by dividing the total track length by the time of imaging.
2D migration studies were done as previously reported (31, 32). In brief, EL08.1D2 stromal cells were grown to a confluent monolayer on flat-bottomed 96 well ImageLock plates (Essen Bioscience) pre-coated with 0.1% gelatin (Stemcell Technologies). […] Freshly isolated human NK cells were imaged in 96-well on the IncuCyte ZOOM Live-Cell Analysis System (Essen Bioscience) at 37° C. every 2 min in the phase-contrast mode (10× objective). Tracking of live cells was done using the manual tracking feature in Fiji (33). Tracks were plotted using the Chemotaxis plugin of FIJI. Cells that were in the field of imaging for fewer than two frames were discarded, as were cells which were non-adherent or floating. EL08.1D2 cells were used as de facto fiducial markers to ensure that neither they or the microscope stage was drifting and causing apparent NK cell movement. Length and displacement measurements were derived directly from tracked cells and graphed using GraphPad software. Velocity data was obtained by dividing the total track length by the time of imaging.

NK92-GFP cells [2] = experiment: NK92-GFP extravasation from zebrafish blood vessels; format: in vivo; conditions: fish bathed in 10 uM Cpd60 vs vehicle; 1 hour after injection
Procedure: The zebrafish embryos were anesthetized with 0.0003016% tricaine (Pentair Aquatic Eco-Systems, Sigma-Aldrich, St. Louis, MO, USA) in the Georgetown-Lombardi Animal Shared Resource and positioned within our zebrafish stereotax on a proprietary microinjection plate. NK92-GFP cells were injected into the pericardium using an air driven Picospritzer Ha microinjector (General Valve/Parker Hannifin) under a stereoscope. After transplantation, embryos were allowed to recover for 1 hour at 33° C. Confocal imaging was performed on an Olympus IX-71 inverted microscope with a color CCD camera in the Georgetown-Lombardi Microscopy Shared Resource. Fluorescent imaging was performed on Keyence BZ-X. Images were taken at 10× across multiple z-stacks. […] NK extravasation quantification was performed by counting the number of GFP cells outside red vasculature. NK extravasation quantification was performed blinded to the treatment conditions. […]
Zebrafish studies were conducted in accordance with NIH guidelines for the care and use of laboratory animals and were approved by the Georgetown University Institutional Animal Care and Use Committee. […] NK extravasation quantification was performed by counting the number of GFP cells outside red vasculature. NK extravasation quantification was performed blinded to the treatment conditions. […]

T1 sequence (Q12884 whole entry): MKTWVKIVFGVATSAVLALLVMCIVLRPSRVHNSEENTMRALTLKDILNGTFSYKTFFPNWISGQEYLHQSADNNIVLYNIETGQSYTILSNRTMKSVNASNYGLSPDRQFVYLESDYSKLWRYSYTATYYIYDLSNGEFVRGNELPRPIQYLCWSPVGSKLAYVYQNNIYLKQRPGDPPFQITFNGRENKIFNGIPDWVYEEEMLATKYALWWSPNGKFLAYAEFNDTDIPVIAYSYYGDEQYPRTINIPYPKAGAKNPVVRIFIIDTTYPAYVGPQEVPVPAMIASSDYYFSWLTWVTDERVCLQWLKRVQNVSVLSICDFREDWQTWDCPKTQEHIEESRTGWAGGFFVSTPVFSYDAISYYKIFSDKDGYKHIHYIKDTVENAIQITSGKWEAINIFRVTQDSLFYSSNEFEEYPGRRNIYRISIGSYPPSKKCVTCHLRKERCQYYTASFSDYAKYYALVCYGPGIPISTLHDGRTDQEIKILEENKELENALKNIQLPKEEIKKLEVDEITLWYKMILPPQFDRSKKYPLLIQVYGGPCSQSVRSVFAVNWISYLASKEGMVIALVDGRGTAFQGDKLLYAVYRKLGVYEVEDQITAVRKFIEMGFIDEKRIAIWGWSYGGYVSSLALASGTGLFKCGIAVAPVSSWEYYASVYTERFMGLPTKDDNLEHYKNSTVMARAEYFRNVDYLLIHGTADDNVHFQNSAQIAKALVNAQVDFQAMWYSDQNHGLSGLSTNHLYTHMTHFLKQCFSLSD
T2 sequence (P27487 whole entry): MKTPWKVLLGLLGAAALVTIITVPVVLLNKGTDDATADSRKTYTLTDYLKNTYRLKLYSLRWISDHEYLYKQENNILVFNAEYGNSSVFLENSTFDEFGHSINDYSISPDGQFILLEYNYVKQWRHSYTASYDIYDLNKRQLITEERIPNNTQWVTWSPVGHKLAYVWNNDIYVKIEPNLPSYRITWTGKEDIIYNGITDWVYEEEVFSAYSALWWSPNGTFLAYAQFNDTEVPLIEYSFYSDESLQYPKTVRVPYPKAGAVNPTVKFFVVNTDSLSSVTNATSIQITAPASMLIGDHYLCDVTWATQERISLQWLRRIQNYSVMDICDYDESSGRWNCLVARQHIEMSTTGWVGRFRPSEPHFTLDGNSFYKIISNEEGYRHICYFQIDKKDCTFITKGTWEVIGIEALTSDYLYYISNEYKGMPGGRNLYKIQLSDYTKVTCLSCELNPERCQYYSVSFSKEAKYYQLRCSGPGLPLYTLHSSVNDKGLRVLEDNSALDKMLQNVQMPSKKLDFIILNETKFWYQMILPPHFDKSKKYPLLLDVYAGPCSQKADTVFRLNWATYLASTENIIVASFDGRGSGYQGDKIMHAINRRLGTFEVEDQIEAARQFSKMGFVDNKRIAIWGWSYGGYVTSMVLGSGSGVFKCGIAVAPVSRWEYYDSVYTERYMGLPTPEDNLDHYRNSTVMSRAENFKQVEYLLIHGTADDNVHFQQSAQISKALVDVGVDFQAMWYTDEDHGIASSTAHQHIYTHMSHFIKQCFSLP

## N#C[C@@H]1CC(F)(F)CN1C(=O)CNC(=O)c1ccnc2ccccc12 [Cpd60]
FAP
  inhibition of FAP dipeptidyl peptidase activity: inhibits FAP
DPPIV
  inhibition of DPPIV dipeptidyl peptidase activity: but not FAP's most closely related protein, DPPIV; also recorded: not DPPIV
NK92-GFP cells [1]; any region
  NK cell content in PANC-1 spheroids: no effect
NK92-GFP cells [1]; mid-edge and mid-center regions
  NK cell content in PSC spheroids: significantly reduced
NK92-GFP cells [1]; mid-edge region
  NK cell content in PSC+PANC-1 spheroids: significantly reduced
Primary human NK cells
  Euclidian distance traveled by NK cells: no significant impact
  NK cell velocity: significantly reduced
  accumulated distance traveled by NK cells: significantly reduced
NK92-GFP cells [2]
  NK cell extravasation from the blood vessels: significantly reduced
